Experimental data from patent US20070167526A1, “Topical mecamylamine formulations for ocular administration and uses thereof” (priority 2005, published 2007).
Read-outs that look alike come from different tables or passages of the source.

Assays:
[1] = Distribution of mecamylamine into ocular tissue of rabbits following intravenous administration (Example 9); format: in vivo, New Zealand white rabbit; settings: rabbit; for concentration at 1 h / concentration at 2 h / concentration at 4 h / concentration at 6 h / concentration at 0 h / concentration at 0.5 h: male, iv; for concentration at 1 h / concentration at 2 h / concentration at 4 h / concentration at 6 h / concentration at 0 h / concentration at 0.5 h / Concentration of mecamylamine in the retina/choroid, Mean: 15 mg/kg; for Concentration of mecamylamine in the retina/choroid, Mean: hour 6, listed as MEC
Method: Mecamylamine was administered intravenously to male New Zealand white rabbits (approximately 2.5-3 kg (Kralek Frams, Turlock, Calif.)) at a dose of 15 mg/kg (dissolved in sterile 0.9% NaCl for injection) over either over 60 minutes or 6 hours. Drug concentrations were measured as described previously at different time points in the plasma, the vitreous and at 6 hours in the retina-choroid tissue. For both groups, the vitreous(>0.1 mL) was withdrawn at 8 time points, with each animal being sampled no more than twice in total: pre-dose, 5 minutes, 15 minutes, 30 minutes, 1, 2, 4, and 6 hours. At all time points, only two vitreous samples were collected in order to minimize pain and damage to rabbit eyes, in compliance with IACUC guidelines. Plasma samples were also collected at the same 8 time points: pre-dose, 5 minutes, 15 minutes, 30 minutes, 1, 2, 4, and 6 hours, with duplicate samples collected at each time point. At 6 hours, the animals were sacrificed and the vitreous and retina-choroid tissue were collected from all animals. Clinical observations were recorded periodically throughout the study. Biological samples for this study were analyzed using an LC/MS/MS method (see Example 6) with a lower limit of quantitation of 0.5 ng/mL.

[2] = 6-hour ocular pharmacokinetics of 2% Mecamylamine GELRITE solution following topical instillation (Example 10); format: in vivo, New Zealand White rabbit; settings: female, New Zealand White, rabbit, topical
Method: The time of each dose administration was recorded. There was no mortality in the treatment group.

## CNC1(C)C2CCC(C2)C1(C)C (centres unmarked) [mecamylamine, N-2,3,3-tetramethylbicyclo(2.2.1)heptan-2-amine]
[1]; New Zealand White, plasma, 15 mg/kg i.v. 1 hr infusion, hour 1, read-out: Concentration of mecamylamine in the plasma, Mean
  concentration at 1 h: 1820 ng/mL
[1]; New Zealand White, plasma, 15 mg/kg i.v. 1 hr infusion, hour 2, read-out: Concentration of mecamylamine in the plasma, Mean
  concentration at 2 h: 455 ng/mL
[1]; New Zealand White, plasma, 15 mg/kg i.v. 1 hr infusion, hour 4, read-out: Concentration of mecamylamine in the plasma, Mean
  concentration at 4 h: 227 ng/mL
[1]; New Zealand White, plasma, 15 mg/kg i.v. 1 hr infusion, hour 6, read-out: Concentration of mecamylamine in the plasma, Mean
  concentration at 6 h: 102 ng/mL
[1]; New Zealand White, plasma, 15 mg/kg i.v. 6 hr infusion, hour 1, read-out: Concentration of mecamylamine in the plasma, Mean
  concentration at 1 h: 470 ng/mL
[1]; New Zealand White, plasma, 15 mg/kg i.v. 6 hr infusion, hour 2, read-out: Concentration of mecamylamine in the plasma, Mean
  concentration at 2 h: 572 ng/mL
[1]; New Zealand White, plasma, 15 mg/kg i.v. 6 hr infusion, hour 4, read-out: Concentration of mecamylamine in the plasma, Mean
  concentration at 4 h: 717 ng/mL
[1]; New Zealand White, plasma, 15 mg/kg i.v. 6 hr infusion, hour 6, read-out: Concentration of mecamylamine in the plasma, Mean
  concentration at 6 h: 313 ng/mL
[1]; New Zealand White, retina/choroid, 15 mg/kg i.v. 1 hr infusion, hour 6, read-out: Concentration of mecamylamine in the retina/choroid, Mean
  concentration at 6 h: 261 ng/mL
[1]; New Zealand White, retina/choroid, 15 mg/kg i.v. 6 hr infusion, hour 6, read-out: Concentration of mecamylamine in the retina/choroid, Mean
  concentration at 6 h: 1530 ng/mL
[1]; New Zealand white, plasma, 15 mg/kg i.v. 1 hr infusion, hour 0, read-out: Concentration of mecamylamine in the plasma, Mean
  concentration at 0 h: 48.7 ng/mL
[1]; New Zealand white, plasma, 15 mg/kg i.v. 1 hr infusion, hour 0.5, read-out: Concentration of mecamylamine in the plasma, Mean
  concentration at 0.5 h: 5330 ng/mL
[1]; New Zealand white, plasma, 15 mg/kg i.v. 6 hr infusion, hour 0, read-out: Concentration of mecamylamine in the plasma, Mean
  concentration at 0 h: 0 ng/mL
[1]; New Zealand white, plasma, 15 mg/kg i.v. 6 hr infusion, hour 0.5, read-out: Concentration of mecamylamine in the plasma, Mean
  concentration at 0.5 h: 350 ng/mL
[1]; New Zealand white, vitreous humor, 15 mg/kg i.v. 1 hr infusion, hour 0, read-out: Concentration of mecamylamine in the vitreous humor, Mean
  concentration at 0 h: 43 ng/mL
[1]; New Zealand white, vitreous humor, 15 mg/kg i.v. 1 hr infusion, hour 0.5, read-out: Concentration of mecamylamine in the vitreous humor, Mean
  concentration at 0.5 h: 717 ng/mL
[1]; New Zealand white, vitreous humor, 15 mg/kg i.v. 1 hr infusion, hour 1, read-out: Concentration of mecamylamine in the vitreous humor, Mean
  concentration at 1 h: 1110 ng/mL
[1]; New Zealand white, vitreous humor, 15 mg/kg i.v. 1 hr infusion, hour 2, read-out: Concentration of mecamylamine in the vitreous humor, Mean
  concentration at 2 h: 900 ng/mL
[1]; New Zealand white, vitreous humor, 15 mg/kg i.v. 1 hr infusion, hour 4, read-out: Concentration of mecamylamine in the vitreous humor, Mean
  concentration at 4 h: 430 ng/mL
[1]; New Zealand white, vitreous humor, 15 mg/kg i.v. 1 hr infusion, hour 6, read-out: Concentration of mecamylamine in the vitreous humor, Mean
  concentration at 6 h: 174 ng/mL
[1]; New Zealand white, vitreous humor, 15 mg/kg i.v. 6 hr infusion, hour 0, read-out: Concentration of mecamylamine in the vitreous humor, Mean
  concentration at 0 h: 5.6 ng/mL
[1]; New Zealand white, vitreous humor, 15 mg/kg i.v. 6 hr infusion, hour 0.5, read-out: Concentration of mecamylamine in the vitreous humor, Mean
  concentration at 0.5 h: 59.9 ng/mL
[1]; New Zealand white, vitreous humor, 15 mg/kg i.v. 6 hr infusion, hour 1, read-out: Concentration of mecamylamine in the vitreous humor, Mean
  concentration at 1 h: 138 ng/mL
[1]; New Zealand white, vitreous humor, 15 mg/kg i.v. 6 hr infusion, hour 2, read-out: Concentration of mecamylamine in the vitreous humor, Mean
  concentration at 2 h: 223 ng/mL
[1]; New Zealand white, vitreous humor, 15 mg/kg i.v. 6 hr infusion, hour 4, read-out: Concentration of mecamylamine in the vitreous humor, Mean
  concentration at 4 h: 408 ng/mL
[1]; New Zealand white, vitreous humor, 15 mg/kg i.v. 6 hr infusion, hour 6, read-out: Concentration of mecamylamine in the vitreous humor, Mean
  concentration at 6 h: 458 ng/mL
[1]; 15 mg/kg i.v. 1 hr infusion
  Concentration of mecamylamine in the retina/choroid, Mean: 260.8 ng/mL
[1]; 15 mg/kg i.v. 6 hr infusion
  Concentration of mecamylamine in the retina/choroid, Mean: 1534.3 ng/mL
[1]; 15 mg/kg i.v. over longer period (6 hours)
  peak mean plasma concentration: 717 ng/mL
[1]; 15 mg/kg i.v. over shorter period
  time of peak plasma levels: ≤ 0.5 h
[1]; 15 mg/kg i.v. over shorter period (60 minutes)
  peak mean plasma concentration: 5,331 ng/mL
[1]; longer infusion period, seen at 6 hours
  highest mean level in the vitreous: 458 ng/mL
[1]; shorter infusion period, seen at 1 hour
  highest mean level in the vitreous: 1110 ng/mL
[2]; aqueous humor, 2% in GELRITE, 2 × 50 μL, OS (unilateral) treated eye, 1 hr, read-out: Mecamylamine concentration in Aqueous humor, Mean
  concentration at 1 h: 2510 ng/g
[2]; aqueous humor, 2% in GELRITE, 2 × 50 μL, OU (bilateral), 1 hr, read-out: Mecamylamine concentration in Aqueous humor, Mean
  concentration at 1 h: 3910 ng/g
[2]; aqueous humor, 2% in GELRITE, 2 × 50 μL, OU (bilateral), 3 hr, read-out: Mecamylamine concentration in Aqueous humor, Mean
  concentration at 3 h: 500 ng/g
[2]; aqueous humor, 2% in GELRITE, 2 × 50 μL, OU (bilateral), 6 hr, read-out: Mecamylamine concentration in Aqueous humor, Mean
  concentration at 6 h: 48.9 ng/g
[2]; aqueous humor, fellow (vehicle) eye of unilaterally dosed animals, 1 hr, read-out: Mecamylamine concentration in Aqueous humor, Mean
  concentration at 1 h: 9.7 ng/g
[2]; blood cell fraction, group MEC OS 1 hr, Post, read-out: Mecamylamine concentration in blood Cell Fraction, Mean
  concentration at 1 h: 15 ng/mL
[2]; blood cell fraction, group MEC OU 1 hr, Post, read-out: Mecamylamine concentration in blood Cell Fraction, Mean
  concentration at 1 h: 33.1 ng/mL
[2]; blood cell fraction, group MEC OU 3 hr, Post, read-out: Mecamylamine concentration in blood Cell Fraction, Mean
  concentration at 3 h: 7 ng/mL
